Literature values, collected in patent publication US20070292523A1, “Dihydropyrimidine Formulations” (priority 2004, published 2007).
Values belong to the molecule of their own block, whether it stands above or below them.

Assays:
[1] = test system: cytochrome P450; conditions: nimodipine with cimetidine (Drugs Aging, 1995, 6, 229-42)
[2] = test system: presystemic oxidative metabolism of nimodipine; conditions: nimodipine and valproic acid administered in combination (Drugs Aging, 1995, 6, 229-42)

solubility in water: practically insoluble in water
Structure (SMILES): COCCOC(=O)C1=C(C)NC(C)=C(C(=O)OC(C)C)C1c1cccc([N+](=O)[O-])c1 (stereo not drawn) [nimodipine, Nimodipine]

Structure (SMILES): CN/C(=N/CCSCc1nc[nH]c1C)NC#N [cimetidine]
bioavailability of nimodipine [1]: approximate doubling of the bioavailability of nimodipine

Structure (SMILES): CCCC(CCC)C(=O)O [valproic acid]
plasma concentrations of nimodipine [2]: increased plasma concentrations of nimodipine
